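Five concentrations, 48 hours, 96-well plates. GI50: concentration for 50% inhibition of growth. TGI marks complete inhibition of growth.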
What was measured:
Experiment in all cases: DTP human tumour cell line panel, 48 h
A498 renal = tested on: A498 renal
CAKI-1 renal = tested on: CAKI-1 renal
COLO 205 colon = tested on: COLO 205 colon
HOP-92 NSCLC = tested on: HOP-92 NSCLC
IGROV1 ovarian = tested on: IGROV1 ovarian
KM12 colon = tested on: KM12 colon
M14 melanoma = tested on: M14 melanoma
OVCAR-8 ovarian = tested on: OVCAR-8 ovarian
SF-268 CNS = tested on: SF-268 CNS
SNB-19 CNS = tested on: SNB-19 CNS

Compound | GI50 (A498 renal) [µM] | TGI (A498 renal) [µM] | GI50 (CAKI-1 renal) [µM] | TGI (CAKI-1 renal) [µM] | GI50 (COLO 205 colon) [µM] | TGI (COLO 205 colon) [µM] | GI50 (HOP-92 NSCLC) [µM] | TGI (HOP-92 NSCLC) [µM] | GI50 (IGROV1 ovarian) [µM] | TGI (IGROV1 ovarian) [µM] | GI50 (KM12 colon) [µM] | TGI (KM12 colon) [µM] | GI50 (M14 melanoma) [µM] | TGI (M14 melanoma) [µM] | GI50 (OVCAR-8 ovarian) [µM] | TGI (OVCAR-8 ovarian) [µM] | GI50 (SF-268 CNS) [µM] | TGI (SF-268 CNS) [µM] | GI50 (SNB-19 CNS) [µM] | TGI (SNB-19 CNS) [µM]
O=C(CCN1CCCC1)Nc1ccc2c(NCCc3ccccc3)c3ccccc3nc2c1 | 0.422 | 1.8 | 1.5 | 5.68 | 0.297 | 1.19 | 0.332 | 1.51 | 0.366 | 1.63 | 0.466 | 1.8 | 0.5 | 1.81 | 0.532 | 2.72 | 0.481 | 1.91 | 0.385 | 1.61
CN1CCN(c2ccc3nc(-c4[nH]ncc4Nc4ncnc5c4OCCCN5)[nH]c3c2)CC1 | < 0.013 | 0.0341 | < 0.01 | 0.0805 | < 0.01 | 0.0157 | < 0.0107 | 0.0429 | < 0.01 | 0.0707 | < 0.0105 | 0.109 | < 0.0115 | 0.0706 | 0.0176 | 0.593 | < 0.0112 | 0.049 | 0.0106 | 0.172
N#Cc1cc([N+](=O)[O-])ccc1NC(=O)C(=O)C(C(=O)c1ccc2ccccc2c1)C1OCc2ccccc21 (centres undefined) |  | 20.6 |  | > 50.3 |  | 27.8 |  | 21.6 |  | 61.6 |  | 30.4 |  | 30.1 |  | 20.9 |  | 47.7 |  | 21.1
O=C(Nc1ccc(Oc2ccc(NC(=O)Nc3ccc([N+](=O)[O-])cc3)cc2)cc1)Nc1ccc([N+](=O)[O-])cc1 | 1.97 | 7.23 | 2.34 | 7.55 | 1.63 | 3.22 |  | 2.07 | 1.9 | 4.71 | 1.53 | > 29.7 | 2.37 | 11.7 | 3.17 | > 100 | 3.1 | > 100 | 3.34 | > 100
COc1cc(-c2nc(-c3ccc(-c4nc5ccc(F)cc5[nH]4)cc3)no2)cc(OC)c1OC | 4.19 | 26.1 | 2.76 | 9.13 | 4.77 | 17 | 1.76 | 13.9 | 3.81 | 14.5 | 3.08 | 8.98 | 3.23 | 10.5 | 2.36 | 7.61 | 3.99 | 32.4 | 5.62 | > 100
O=C(Cc1ccc(Nc2ccnc(C(F)(F)F)c2)cc1)Nc1cc(Cl)ccc1O | 3.03 | 10.6 | 13.7 | 43.7 | 21.7 | 55.4 | 1.96 | 8.44 | 6.34 | 30 | 4.36 | 16.9 | 12.3 | 33.6 | 20.5 | > 100 | 8.39 | 31.5 | 5.31 | 38
O=C(Cc1csc2nc(-c3ccc(Br)cc3)cn12)N/N=C/c1ccc(Cl)cc1Cl | 29.3 | 62.7 | 36.1 | > 100 | 75 | > 100 | 28.2 | > 100 | 16 | 45.6 | 38.2 | > 100 | 32.9 | > 100 | 18.6 | 50.3 | > 100 | > 100 | 94.6 | > 100
